According to ChEMBL document CHEMBL4024706 (Eur J Med Chem, 2017):

Columns and labels:
[1] = test system: Tyrosine-protein kinase ABL1 (Homo sapiens), P00519 [E255K]; experiment: Inhibition of human phosphorylated ABL1 E255K mutant (S229 to K512 residues) expressed in mammalian expression system assessed as residual activity at 1 uM by Kinomescan method relative to control
[2] = test system: Tyrosine-protein kinase ABL1 (Homo sapiens), P00519 [Y253F]; experiment: Inhibition of human phosphorylated ABL1 Y253F mutant (S229 to K512 residues) expressed in mammalian expression system assessed as residual activity at 1 uM by Kinomescan method relative to control
[3] = biological target: RAC-gamma serine/threonine-protein kinase (Homo sapiens) (UniProt Q9Y243); experiment: Inhibition of wild-type human partial length AKT3 expressed in bacterial expression system assessed as residual activity at 1 uM by Kinomescan method relative to control
[4] = biological target: Casein kinase II subunit alpha' (Homo sapiens) (UniProt P19784); experiment: Inhibition of wild-type human full length CSNK2A2 (M1 to R350 residues) expressed in mammalian expression system assessed as residual activity at 1 uM by Kinomescan method relative to control
[5] = biological target: Serine/threonine-protein kinase 17A (Homo sapiens) (UniProt Q9UEE5); experiment: Inhibition of wild-type human partial length DRAK1 (R32 to E363 residues) expressed in bacterial expression system assessed as residual activity at 1 uM by Kinomescan method relative to control
[6] = biological target: Dual specificity tyrosine-phosphorylation-regulated kinase 1A (Homo sapiens) (UniProt Q13627); experiment: Inhibition of wild-type human partial length DYRK1A (H129 to S509 residues) expressed in mammalian expression system assessed as residual activity at 1 uM by Kinomescan method relative to control
[7] = biological target: Tyrosine-protein kinase Fer (Homo sapiens) (UniProt P16591); experiment: Inhibition of wild-type human partial length FER (S542 to T822 residues) expressed in bacterial expression system assessed as residual activity at 1 uM by Kinomescan method relative to control
[8] = biological target: Tyrosine-protein kinase Fes/Fps (Homo sapiens) (UniProt P07332); experiment: Inhibition of wild-type human partial length FES (I527 to R822 residues) expressed in bacterial expression system assessed as residual activity at 1 uM by Kinomescan method relative to control
[9] = biological target: Vascular endothelial growth factor receptor 3 (Homo sapiens) (UniProt P35916); experiment: Inhibition of wild-type human partial length FLT4 (E821 to E1196 residues) expressed in bacterial expression system assessed as residual activity at 1 uM by Kinomescan method relative to control
[10] = biological target: Tyrosine-protein kinase ITK/TSK (Homo sapiens) (UniProt Q08881); experiment: Inhibition of wild-type human partial length ITK (R335 to L620 residues) expressed in bacterial expression system assessed as residual activity at 1 uM by Kinomescan method relative to control
[11] = biological target: Mitogen-activated protein kinase kinase kinase 13 (Homo sapiens) (UniProt O43283); experiment: Inhibition of wild-type human full length LZK (M1 to W966 residues) expressed in mammalian expression system assessed as residual activity at 1 uM by Kinomescan method relative to control
[12] = biological target: Mitogen-activated protein kinase kinase kinase 15 (Homo sapiens) (UniProt Q6ZN16); experiment: Inhibition of wild-type human partial length MAP3K15 (T625 to L932 residues) expressed in mammalian expression system assessed as residual activity at 1 uM by Kinomescan method relative to control
[13] = biological target: Dual specificity mitogen-activated protein kinase kinase 3 (Homo sapiens) (UniProt P46734); experiment: Inhibition of wild-type human full length MEK3 (M1 to S318 residues) expressed in mammalian expression system assessed as residual activity at 1 uM by Kinomescan method relative to control
[14] = biological target: Dual specificity mitogen-activated protein kinase kinase 7 (Homo sapiens) (UniProt O14733); experiment: Inhibition of wild-type human full length MKK7 (M1 to R419 residues) expressed in mammalian expression system assessed as residual activity at 1 uM by Kinomescan method relative to control
[15] = biological target: Myosin-IIIa (Homo sapiens) (UniProt Q8NEV4); experiment: Inhibition of wild-type human partial length MYO3A (M1 to K338 residues) expressed in bacterial expression system assessed as residual activity at 1 uM by Kinomescan method relative to control
[16] = biological target: Mitogen-activated protein kinase kinase kinase 14 (Homo sapiens) (UniProt Q99558); experiment: Inhibition of wild-type human partial length NIK (L318 to P947 residues) expressed in mammalian expression system assessed as residual activity at 1 uM by Kinomescan method relative to control
[17] = biological target: Cyclin-dependent kinase 2 homolog (Plasmodium falciparum (isolate 3D7)) (UniProt P61075); experiment: Inhibition of wild-type Plasmodium falciparum isolate 3D7 full length PK5 (M1 to N288 residues) expressed in mammalian expression system assessed as residual activity at 1 uM by Kinomescan method relative to control
[18] = test system: Phosphatidylinositol 4,5-bisphosphate 3-kinase catalytic subunit alpha isoform (Homo sapiens), P42336 [E542K]; experiment: Inhibition of human partial length PIK3CA E542K mutant (R108 to N1068 residues) expressed in mammalian expression system assessed as residual activity at 1 uM by Kinomescan method relative to control
[19] = biological target: Protein kinase C theta type (Homo sapiens) (UniProt Q04759); experiment: Inhibition of wild-type human partial length PRKCQ (L350 to S706 residues) expressed in bacterial expression system assessed as residual activity at 1 uM by Kinomescan method relative to control
[20] = biological target: Proto-oncogene tyrosine-protein kinase receptor Ret (Homo sapiens) (UniProt P07949); experiment: Inhibition of wild-type human partial length RET (E713 to D1014 residues) expressed in bacterial expression system assessed as residual activity at 1 uM by Kinomescan method relative to control
[21] = biological target: Receptor-interacting serine/threonine-protein kinase 1 (Homo sapiens) (UniProt Q13546); experiment: Inhibition of wild-type human partial length RIPK1 (M1 to K305 residues) expressed in bacterial expression system assessed as residual activity at 1 uM by Kinomescan method relative to control
[22] = biological target: Tyrosine-protein kinase Srms (Homo sapiens) (UniProt Q9H3Y6); experiment: Inhibition of wild-type human partial length SRMS (L208 to P488 residues) expressed in mammalian expression system assessed as residual activity at 1 uM by Kinomescan method relative to control
[23] = biological target: TGF-beta receptor type-1 (Homo sapiens) (UniProt P36897); experiment: Inhibition of wild-type human partial length TGFBR1 (D179 to M503 residues) expressed in bacterial expression system assessed as residual activity at 1 uM by Kinomescan method relative to control
[24] = biological target: Serine/threonine-protein kinase VRK2 (Homo sapiens) (UniProt Q86Y07); experiment: Inhibition of wild-type human partial length VRK2 (M1 to T336 residues) expressed in mammalian expression system assessed as residual activity at 1 uM by Kinomescan method relative to control
U2932 = experiment: Induction of apoptosis in human U2932 cells assessed as induction of caspase-3 cleavage after 48 hrs by immunoblot; type: functional, cell-based

C=CC(=O)Nc1cc(Nc2cc(-c3cccc(NC(=O)c4ccc(C(C)(C)C)cc4)c3C)cn(C)c2=O)ccc1C(=O)N1CCOCC1
Activity [1]: 100%
Activity [2]: 97%
Activity [3]: 95%
Activity [4]: 100%
Activity [5]: 82%
Activity [6]: 100%
Activity [7]: 99%
Activity [8]: 84%
Activity [9]: 100%
Activity [10]: 100%
Activity [11]: 98%
Activity [12]: 99%
Activity [13]: 100%
Activity [14]: 100%
Activity [15]: 95%
Activity [16]: 86%
Activity [17]: 88%
Activity [18]: 94%
Activity [19]: 91%
Activity [20]: 87%
Activity [21]: 100%
Activity [22]: 100%
Activity [23]: 93%
Activity [24]: 100%
Activity (U2932): Dose-dependent effect
